Results taken from US7585871B2, “Phenanthridine carbonyl phenols” (Wyeth, priority 2004, dated 2009).

Tests used:
human ERα = target: T1, human ERα (Homo sapiens, UniProt P03372); test: IL-6 luciferase (IL6-luc) assay in ERα infected HAECT-1 cells; assay type: cell-based; conditions: for IC50: ERα infected HAECT-1 cells, IL-1β, Ad5-IL-6(1250 bp).Luc virus, 15-20 h; for IL6-luc (% E2): efficacy relative to E2, value in parentheses after the IC50
T1 construct: expressed in transfected cells; host or cells: HAECT-1 cells (immortalized human aortic endothelial cells) infected with Ad5-wt-hERα adenovirus
T1 sequence (P03372 1-595): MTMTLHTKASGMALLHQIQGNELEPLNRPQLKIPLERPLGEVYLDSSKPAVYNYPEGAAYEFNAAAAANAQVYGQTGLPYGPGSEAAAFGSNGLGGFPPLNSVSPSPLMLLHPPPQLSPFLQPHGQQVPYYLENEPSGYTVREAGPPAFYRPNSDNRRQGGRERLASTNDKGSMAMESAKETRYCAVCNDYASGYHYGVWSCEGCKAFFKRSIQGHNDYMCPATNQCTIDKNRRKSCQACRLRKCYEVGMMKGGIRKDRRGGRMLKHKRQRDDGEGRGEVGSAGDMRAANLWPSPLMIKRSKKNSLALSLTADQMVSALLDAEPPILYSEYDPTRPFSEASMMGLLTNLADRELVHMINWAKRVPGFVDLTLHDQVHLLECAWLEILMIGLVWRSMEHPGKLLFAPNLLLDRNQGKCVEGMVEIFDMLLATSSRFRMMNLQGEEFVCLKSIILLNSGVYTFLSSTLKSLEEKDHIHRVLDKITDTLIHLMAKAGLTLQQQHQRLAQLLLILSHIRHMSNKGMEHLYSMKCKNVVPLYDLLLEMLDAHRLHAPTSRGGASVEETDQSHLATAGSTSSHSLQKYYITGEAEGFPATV
Protocol: After four hours, cells were washed with EBM-BSA and incubated overnight in the same medium. Following overnight incubation, cells were washed with EBM-BSA and infected for 2 hours with 6 ml of a 1:10 dilution of Ad5-3x(NFκB).Luc virus (Adenovirus luciferase expression vector driven by 3 repeats of the MHC NFκb site 5′ to the thymidine kinase promoter) in EBM-BSA. After two hours, cells were washed and incubated at 34° C. for 1 hour. […] Control (no ER infection) cells were processed as above without Ad5-wt-hERα virus infection.
ERα infected HAECT-1 cells or control cells were thawed, diluted 42× in warm EBM-BSA, plated into 96-well plates at 0.1 ml/well and incubated for 4 h at 34° C. […] After 15-20 h, cells are lysed with 50 ul of Promega Cell Culture Lysis reagent for ˜5 min at room temp on shaker. After lysing, 15 ul of lysate is transferred to luminometer plates for luciferase determination. […] Creatine kinase was determined from the rate of increase in A340 following addition of 100 uL of CK assay reagent (Sigma, cat. No 47-10) to the remainder of the cell lysate.
For IC50 and EC50 calculations, mean IL-6, luciferase or CK values versus log10 of the compound concentration were fitted to a four parameter logistic equation. The IC50/EC50 value, ‘Hill slope’, upper and lower limits of the curve were iteratively estimated.

Row | SMILES | IC50 (human ERα) [nM] | IL6-luc (% E2) (human ERα) [%] | melting point [°C]
1 | C[C@@H]1c2ccccc2-c2ccc(Cl)cc2N1C(=O)c1ccc(O)cc1O [Example 31, 4-{[(6R)-3-chloro-6-methylphenanthridin-5(6H)-yl]carbonyl}benzene-1,3-diol] | 3 | 87 | 
2 | C[C@H]1c2ccccc2-c2ccc(Cl)cc2N1C(=O)c1cccc(O)c1 [Example 26, 3-{[(6S)-3-chloro-6-methylphenanthridin-5(6H)-yl]carbonyl}phenol] | 377 | 49 | 
3 | CC1c2ccccc2-c2ccc(F)cc2N1C(=O)c1ccc(O)cc1 (racemic) [Example 36, 4-[(3-fluoro-6-methylphenanthridin-5(6H)-yl)carbonyl]phenol] |  |  | 134.5 to 135
4 | CC[C@H]1c2cc(F)ccc2-c2ccccc2N1C(=O)c1ccc(O)cc1 [Example 19, 4-{[(6S)-6-ethyl-8-fluorophenanthridin-5(6H)-yl]carbonyl}phenol] | 85 | 88 | 103 to 104
5 | C[C@H]1c2ccccc2-c2ccc(F)cc2N1C(=O)c1ccc(O)cc1O (single isomer, unassigned) [Example 41] | 272 | 88 | 182 to 184
6 | C[C@@H]1c2cc(F)ccc2-c2ccccc2N1C(=O)c1ccc(O)c(F)c1 [Example 9, 2-fluoro-4-{[(6R)-8-fluoro-6-methylphenanthridin-5(6H)-yl]carbonyl}phenol] | 31 | 81 | 
7 | C[C@@H]1c2cc(F)ccc2-c2ccccc2N1C(=O)c1ccc(O)c(Br)c1 [Example 13, 2-bromo-4-{[(6R)-8-fluoro-6-methylphenanthridin-5(6H)-yl]carbonyl}phenol] | 51 | 102 | 
8 | CCC1c2cc(F)ccc2-c2ccccc2N1C(=O)c1ccc(O)cc1F (racemic) [Example 23, 4-[(6-ethyl-8-fluorophenanthridin-5(6H)-yl)carbonyl]-3-fluorophenol] | 1 | 107 | 109 to 111
9 | C[C@H]1c2cc(F)ccc2-c2ccc(F)cc2N1C(=O)c1ccc(O)cc1 (single isomer, unassigned) [Example 44] | 130 | 132 | 135 to 138
10 | CC1c2ccccc2-c2ccc(F)cc2N1C(=O)c1cccc(O)c1 (racemic) [Example 33, 3-[(3-fluoro-6-methylphenanthridin-5(6H)-yl)carbonyl]phenol] |  |  | 163.9 to 165
11 | CC1c2ccccc2-c2ccc(Cl)cc2N1C(=O)c1cccc(O)c1 (racemic) [Example 24, 3-[(3-chloro-6-methylphenanthridin-5(6H)-yl)carbonyl]phenol] |  |  | 176.2 to 177.9
12 | C[C@@H]1c2cc(F)ccc2-c2ccccc2N1C(=O)c1ccc(O)cc1 [Example 1, 4-{[(6R)-8-fluoro-6-methylphenanthridin-5(6H)-yl]carbonyl}phenol] | 5 | 100 | 
13 | C[C@@H]1c2cc(F)ccc2-c2ccccc2N1C(=O)c1cccc(O)c1 [Example 4, 3-{[(6R)-8-fluoro-6-methylphenanthridin-5(6H)-yl]carbonyl}phenol] | 47 | 102 | 162
14 | C[C@@H]1c2ccccc2-c2ccc(F)cc2N1C(=O)c1cccc(O)c1 (single isomer, unassigned) [Example 34] | 11 | 188 | 

More lines, now with the values ahead:

Row | IC50 (human ERα) [nM] | IL6-luc (% E2) (human ERα) [%] | melting point [°C] | SMILES
15 |  |  | 165 to 165.9 | CC1c2ccccc2-c2ccc(Cl)cc2N1C(=O)c1ccc(O)cc1 (racemic) [Example 27, 4-[(3-chloro-6-methylphenanthridin-5(6H)-yl)carbonyl]phenol]
16 |  |  | 236.6 to 237.8 | C[C@H]1c2ccccc2-c2ccc(F)cc2N1C(=O)c1ccc(O)cc1 (single isomer, unassigned) [Example 38]
17 | 9 | 97 |  | C[C@@H]1c2cc(F)ccc2-c2ccccc2N1C(=O)c1ccc(O)cc1F [Example 5, 3-fluoro-4-{[(6R)-8-fluoro-6-methylphenanthridin-5(6H)-yl]carbonyl}phenol]
18 | 789 | 125 |  | C[C@H]1c2ccccc2-c2ccc(Cl)cc2N1C(=O)c1ccc(O)cc1O [Example 32, 4-{[(6S)-3-chloro-6-methylphenanthridin-5(6H)-yl]carbonyl}benzene-1,3-diol]
19 | 6 | 95 | 105 to 106 | CC[C@@H]1c2cc(F)ccc2-c2ccccc2N1C(=O)c1ccc(O)cc1 [Example 20, 4-{[(6R)-6-ethyl-8-fluorophenanthridin-5(6H)-yl]carbonyl}phenol]
20 | 301 | 76 |  | C[C@@H]1c2cc(F)ccc2-c2ccccc2N1C(=O)c1cc(O)ccc1Br [Example 15, 4-bromo-3-{[(6R)-8-fluoro-6-methylphenanthridin-5(6H)-yl]carbonyl}phenol]
21 | 364 | 113 |  | COc1cc(C(=O)N2c3ccccc3-c3ccc(F)cc3[C@H]2C)ccc1O [Example 17, 4-{[(6R)-8-fluoro-6-methylphenanthridin-5(6H)-yl]carbonyl}-2-methoxyphenol]
22 | 38 | 53 |  | C[C@H]1c2cc(F)ccc2-c2ccccc2N1C(=O)c1cccc(O)c1 [Example 2, 3-{[(6S)-8-fluoro-6-methylphenanthridin-5(6H)-yl]carbonyl}phenol]
23 | 1000 | 75 | 273.7 to 276 | C[C@H]1c2ccccc2-c2ccc(Cl)cc2N1C(=O)c1ccc(O)cc1 [Example 29, 4-{[(6S)-3-chloro-6-methylphenanthridin-5(6H)-yl]carbonyl}phenol]
24 | 263 | 70 |  | C[C@@H]1c2cc(F)ccc2-c2ccccc2N1C(=O)c1cc(O)ccc1F [Example 7, 4-fluoro-3-{[(6R)-8-fluoro-6-methylphenanthridin-5(6H)-yl]carbonyl}phenol]
25 | 403 | 90 |  | C[C@H]1c2cc(F)ccc2-c2ccccc2N1C(=O)c1ccc(O)cc1F [Example 6, 3-fluoro-4-{[(6S)-8-fluoro-6-methylphenanthridin-5(6H)-yl]carbonyl}phenol]
26 | 1470 | 68 |  | C[C@H]1c2cc(F)ccc2-c2ccccc2N1C(=O)c1ccc(O)c(F)c1 [Example 10, 2-fluoro-4-{[(6S)-8-fluoro-6-methylphenanthridin-5(6H)-yl]carbonyl}phenol]
27 | 1.5 | 147 | 138 to 140 | C[C@@H]1c2cc(F)ccc2-c2ccc(F)cc2N1C(=O)c1ccc(O)cc1 (single isomer, unassigned) [Example 43]
28 | 832 | 91 |  | C[C@H]1c2cc(F)ccc2-c2ccccc2N1C(=O)c1cc(O)ccc1Br [Example 16, 4-bromo-3-{[(6S)-8-fluoro-6-methylphenanthridin-5(6H)-yl]carbonyl}phenol]
29 | 414 | 114 |  | C[C@H]1c2cc(F)ccc2-c2ccccc2N1C(=O)c1ccc(O)cc1 [Example 3, 4-{[(6S)-8-fluoro-6-methylphenanthridin-5(6H)-yl]carbonyl}phenol]
